What all share (type): biochemical
Assay [1] addresses PI3K alpha (Homo sapiens, UniProt P42336). In words: PI3 Kinase Assay (PI3K alpha). The procedure:
(§1) PI3-Kinase reactions were performed in […], pH 7, […], and 25 μM ATP, with diC8-PI(4,5)P2 (Echelon, Salt Lake City Utah) as substrate. Nunc 384 well black polypropylene fluorescent plates were used for PI3K assays. Reactions were quenched by the addition of EDTA to a final concentration of […]. Final reaction volumes were […]. For evaluation of PI 3-K inhibitors, 5 ng of enzyme and 2.5 μM of substrate was used per […] reaction volume, and inhibitor concentrations ranged from 100 μM to […]; the final level of DMSO in reactions never exceeded 2%. Reactions were allowed to proceed for one hour at 25° C. After 1 hour, GST-tagged GRP1 (general receptor for phosphoinositides) PH domain fusion protein was added to a final concentration of 100 nM, and BODIPY-TMRI(1,3,4,5)P4 (Echelon) was also added to a final concentration of 5 nM. Final sample volumes were 25 μl with a final DMSO concentration of 0.8%. Assay Plates were read on Perkin-Elmer Envision plate readers with appropriate filters for Tamra [BODIPY-TMRI(1,3,4,5)P4]. Data obtained were used to calculate enzymatic activity and enzyme inhibition by inhibitor compounds.

In assay [2] the target is PI3K gamma (Homo sapiens, UniProt P48736). Briefly: PI3 Kinase Assay (PI3K gamma). The following applies: 1 h. The procedure:
as §1

Assay [3] concerns the target T1, human TOR (FLAG-TOR) (Homo sapiens, UniProt P42345).
T1 construct: FLAG
In words: mTOR Enzyme Assay (DELFIA). The procedure:
The routine human TOR assays with purified enzyme were performed in 96-well plates by DELFIA format as follows. Enzymes were first diluted in kinase assay buffer (10 mM Hepes (pH 7.4), 50 mM NaCl, 50 mM β-glycerophosphate, 10 mM MnCl2, 0.5 mM DTT, 0.25 μM microcystin LR, and 100 μg/mL BSA). To each well, 12 μL of the diluted enzyme were mixed briefly with 0.5 μL test inhibitor or control vehicle dimethylsulfoxide (DMSO). The kinase reaction was initiated by adding 12.5 μL kinase assay buffer containing ATP and His6-S6K to give a final reaction volume of 25 μL containing 800 ng/mL FLAG-TOR, 100 μM ATP and 1.25 μM His6-S6K. The reaction plate was incubated for 2 hours (linear at 1-6 hours) at room temperature with gentle shaking and then terminated by adding 25 μL Stop buffer (20 mM Hepes (pH 7.4), 20 mM EDTA, 20 mM EGTA). The DELFIA detection of the phosphorylated (Thr-389) His6-S6K was performed at room temperature using a monoclonal anti-P(T389)-p70S6K antibody (1A5, Cell Signaling) labeled with Europium-N-1-ITC (Eu) (10.4 Eu per antibody, PerkinElmer). The DELFIA Assay buffer and Enhancement solution were purchased from PerkinElmer. 45 μL of the terminated kinase reaction mixture was transferred to a MaxiSorp plate (Nunc) containing 55 μL PBS. […] L of DELFIA Enhancement solution was added to each well and the plates were read in a PerkinElmer Victor model plate reader. […]

Assay [4] deals with T2, Flag-IKKβ (Homo sapiens, UniProt O14920).
T2 construct: made in house; host or cells: SF9 insect cells (baculovirus)
T2 sequence (O14920 1-756): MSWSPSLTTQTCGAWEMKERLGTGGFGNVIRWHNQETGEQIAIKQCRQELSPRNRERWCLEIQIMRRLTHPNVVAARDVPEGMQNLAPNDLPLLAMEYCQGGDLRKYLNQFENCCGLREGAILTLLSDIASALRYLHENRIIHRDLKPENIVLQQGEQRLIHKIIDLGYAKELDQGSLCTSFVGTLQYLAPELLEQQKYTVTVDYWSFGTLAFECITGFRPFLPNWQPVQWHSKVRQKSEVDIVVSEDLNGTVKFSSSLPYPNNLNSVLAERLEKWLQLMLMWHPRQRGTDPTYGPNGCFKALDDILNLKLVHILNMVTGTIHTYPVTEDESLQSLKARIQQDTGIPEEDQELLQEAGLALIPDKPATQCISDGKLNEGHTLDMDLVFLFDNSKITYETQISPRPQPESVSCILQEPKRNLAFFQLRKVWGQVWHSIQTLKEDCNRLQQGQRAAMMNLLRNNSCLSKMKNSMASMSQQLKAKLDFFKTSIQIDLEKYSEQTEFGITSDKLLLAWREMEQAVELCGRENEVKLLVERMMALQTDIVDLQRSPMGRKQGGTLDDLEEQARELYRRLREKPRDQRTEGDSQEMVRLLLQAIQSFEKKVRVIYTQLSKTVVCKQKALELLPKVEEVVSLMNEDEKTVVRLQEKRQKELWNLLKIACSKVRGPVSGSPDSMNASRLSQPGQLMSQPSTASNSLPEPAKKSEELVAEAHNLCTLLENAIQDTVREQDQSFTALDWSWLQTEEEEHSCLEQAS
In words: IKK Kinase Assay (LANCE). From the text: Human IKKβ cDNA is amplified by reverse transcriptase-polymerase chain reaction from human placental RNA (CLONTECH) using primers that incorporated the FLAG-epitope at the C terminus of IKKβ. FLAG-IKKβ is inserted into the baculovirus expression plasmid pFASTBAC (Life Technologies). Following the manufacturer's protocol for the BAC-TO-BAC (Life Technologies) Baculovirus Expression System, recombinant baculoviruses expressing the IKKβ enzyme are made. Briefly, 9×10^5 SF9 cells per well of a 6-well plate are transfected with one μg of miniprep bacmid DNA using the CellFECTIN™ reagent. Virus is harvested 72 hours post transfection, and a viral titer is performed, after which a high titer viral stock (2×10^8 pfu/ml) is amplified by three to four rounds of infection. […]
Purified Flag-IKKβ enzyme (2 nM final concentration) is typically used in the kinase reaction buffer described above supplemented with 0.0025% Brij solution (Sigma) to help stabilize the enzyme. […] 25 μL of 20 mM EDTA is added to terminate the reactions and then 100 μL of detection mixture [0.25 nM Europium labeled anti-phospho-IκBα (prepared by Wallac) and 0.25 μg/mL final concentration streptavidin-APC, Wallac] is added 30 minutes before reading the plates in a Wallac VICTOR plate reader. […]
On the technique in general: In TR-FRET formats the signal depends on donor and acceptor labels being close together.

Assay [5] has as its target T3, human PKCθ full length enzyme (Homo sapiens, UniProt Q04759).
T3 construct: human PKCθ full length enzyme; purchased Panvera P2996
Briefly: PKC Theta IMAP Assay. How it is done:
The materials used include the following: human PKCθ full length enzyme (Panvera Cat#P2996); substrate peptide: 5FAM-RFARKGSLRQKNV-OH (Molecular Devices, RP7032); ATP (Sigma Cat #A2383); DTT (Pierce, 20291); 5× kinase reaction buffer (Molecular Devices, R7209); 5× binding buffer A (Molecular Devices, R7282), 5× binding buffer B (Molecular Devices, R7209); IMAP Beads (Molecular Devices, R7284); and 384-well plates (Corning Costar, 3710).
The reaction buffer was prepared by diluting the 5× stock reaction buffer and adding DTT to obtain a concentration of 3.0 mM. The binding buffer was prepared by diluting the 5× binding buffer A. A master mix solution was prepared using a 90% dilution of the reaction buffer containing 2×ATP (12 uM) and 2× peptide (200 nm). Compounds were diluted in DMSO to 20× of the maximum concentration for the IC50 measurement. 27 μl of the master mix solution for each IC50 curve was added to the first column in a 384-well plate and 3 μl of 20× compound in DMSO was added to each well. The final concentration of compound was 2× and 10% DMSO. DMSO was added to the rest of the master mix to increase the concentration to 10%. 10 μl of the master mix containing 10% DMSO was added to the rest of the wells on the plate except the 2nd column. 20 μl was transferred from the first column to the 2nd column. […] FP was measured using Envision2100 (PerkinElmer Life Sciences). […]

The results in this text go back to patent US20090291971A1, “HETEROARYL ETHERS AND PROCESSES FOR THEIR PREPARATION” (Wyeth, priority 2007, published 2009).

What is called inhibition is the drop in the measured response relative to a control, in per cent. Higher therefore signals a strong effect. One may read the IC50 as the concentration at which inhibition is half-maximal. Lower therefore signals inhibition by little substance.

Chain of PI3K gamma (P48736 whole entry, species assumed): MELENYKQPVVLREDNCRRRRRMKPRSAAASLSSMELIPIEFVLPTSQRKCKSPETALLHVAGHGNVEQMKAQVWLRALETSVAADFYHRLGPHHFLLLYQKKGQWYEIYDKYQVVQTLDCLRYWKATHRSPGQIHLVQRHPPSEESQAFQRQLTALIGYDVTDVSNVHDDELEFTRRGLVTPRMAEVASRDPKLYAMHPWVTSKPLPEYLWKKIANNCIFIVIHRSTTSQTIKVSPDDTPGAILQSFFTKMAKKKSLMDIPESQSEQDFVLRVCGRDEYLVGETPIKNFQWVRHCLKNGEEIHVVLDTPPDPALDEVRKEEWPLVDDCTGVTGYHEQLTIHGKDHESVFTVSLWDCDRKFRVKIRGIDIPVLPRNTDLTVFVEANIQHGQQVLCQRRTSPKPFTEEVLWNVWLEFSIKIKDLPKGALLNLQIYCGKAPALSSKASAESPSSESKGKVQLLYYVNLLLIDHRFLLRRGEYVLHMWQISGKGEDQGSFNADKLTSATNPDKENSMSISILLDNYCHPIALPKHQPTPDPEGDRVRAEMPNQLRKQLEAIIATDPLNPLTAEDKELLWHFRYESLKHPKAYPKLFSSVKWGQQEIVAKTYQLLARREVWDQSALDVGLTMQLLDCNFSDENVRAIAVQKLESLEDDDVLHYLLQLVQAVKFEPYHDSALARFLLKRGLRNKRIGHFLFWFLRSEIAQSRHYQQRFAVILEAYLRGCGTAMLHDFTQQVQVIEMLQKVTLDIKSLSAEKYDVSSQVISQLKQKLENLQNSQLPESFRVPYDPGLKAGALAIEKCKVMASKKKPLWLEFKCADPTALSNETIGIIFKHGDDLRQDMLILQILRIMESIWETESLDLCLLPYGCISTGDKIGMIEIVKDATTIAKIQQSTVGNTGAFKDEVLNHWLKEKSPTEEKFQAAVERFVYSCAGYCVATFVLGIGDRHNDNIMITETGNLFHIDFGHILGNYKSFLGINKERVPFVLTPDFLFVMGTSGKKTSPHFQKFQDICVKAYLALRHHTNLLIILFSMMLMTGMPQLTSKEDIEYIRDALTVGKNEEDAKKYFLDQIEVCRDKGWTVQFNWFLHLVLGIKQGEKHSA
Chain of PI3K alpha (P42336 whole entry, species assumed, the tested form may be a part): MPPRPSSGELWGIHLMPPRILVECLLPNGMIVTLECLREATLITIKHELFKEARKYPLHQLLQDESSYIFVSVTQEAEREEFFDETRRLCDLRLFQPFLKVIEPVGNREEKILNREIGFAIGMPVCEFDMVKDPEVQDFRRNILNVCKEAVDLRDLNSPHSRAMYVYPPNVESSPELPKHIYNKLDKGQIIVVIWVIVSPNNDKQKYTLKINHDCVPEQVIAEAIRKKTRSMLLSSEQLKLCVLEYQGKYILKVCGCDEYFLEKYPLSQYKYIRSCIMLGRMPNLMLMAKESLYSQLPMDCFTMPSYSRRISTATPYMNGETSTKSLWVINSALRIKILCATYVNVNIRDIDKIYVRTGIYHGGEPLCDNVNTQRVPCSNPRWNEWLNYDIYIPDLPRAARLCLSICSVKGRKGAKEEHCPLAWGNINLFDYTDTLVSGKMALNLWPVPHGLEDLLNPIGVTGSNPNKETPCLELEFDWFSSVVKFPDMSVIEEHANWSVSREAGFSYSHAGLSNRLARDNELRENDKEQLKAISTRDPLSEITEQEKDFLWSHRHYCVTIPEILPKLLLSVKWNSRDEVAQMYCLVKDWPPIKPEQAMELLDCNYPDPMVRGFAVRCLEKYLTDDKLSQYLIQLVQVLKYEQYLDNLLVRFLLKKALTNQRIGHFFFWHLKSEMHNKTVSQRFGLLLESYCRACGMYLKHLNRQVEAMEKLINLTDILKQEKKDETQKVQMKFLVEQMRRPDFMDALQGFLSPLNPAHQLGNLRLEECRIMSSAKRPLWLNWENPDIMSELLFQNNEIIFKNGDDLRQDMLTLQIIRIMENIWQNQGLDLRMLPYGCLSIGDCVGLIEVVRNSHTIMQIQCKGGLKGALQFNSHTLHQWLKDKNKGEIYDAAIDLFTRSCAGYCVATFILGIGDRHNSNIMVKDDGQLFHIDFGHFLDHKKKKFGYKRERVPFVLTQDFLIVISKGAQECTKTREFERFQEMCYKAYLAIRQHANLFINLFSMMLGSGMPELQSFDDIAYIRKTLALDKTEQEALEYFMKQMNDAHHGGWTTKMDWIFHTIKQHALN
Chain of PI3K alpha (P27986 whole entry partner, species assumed, the tested form may be a part): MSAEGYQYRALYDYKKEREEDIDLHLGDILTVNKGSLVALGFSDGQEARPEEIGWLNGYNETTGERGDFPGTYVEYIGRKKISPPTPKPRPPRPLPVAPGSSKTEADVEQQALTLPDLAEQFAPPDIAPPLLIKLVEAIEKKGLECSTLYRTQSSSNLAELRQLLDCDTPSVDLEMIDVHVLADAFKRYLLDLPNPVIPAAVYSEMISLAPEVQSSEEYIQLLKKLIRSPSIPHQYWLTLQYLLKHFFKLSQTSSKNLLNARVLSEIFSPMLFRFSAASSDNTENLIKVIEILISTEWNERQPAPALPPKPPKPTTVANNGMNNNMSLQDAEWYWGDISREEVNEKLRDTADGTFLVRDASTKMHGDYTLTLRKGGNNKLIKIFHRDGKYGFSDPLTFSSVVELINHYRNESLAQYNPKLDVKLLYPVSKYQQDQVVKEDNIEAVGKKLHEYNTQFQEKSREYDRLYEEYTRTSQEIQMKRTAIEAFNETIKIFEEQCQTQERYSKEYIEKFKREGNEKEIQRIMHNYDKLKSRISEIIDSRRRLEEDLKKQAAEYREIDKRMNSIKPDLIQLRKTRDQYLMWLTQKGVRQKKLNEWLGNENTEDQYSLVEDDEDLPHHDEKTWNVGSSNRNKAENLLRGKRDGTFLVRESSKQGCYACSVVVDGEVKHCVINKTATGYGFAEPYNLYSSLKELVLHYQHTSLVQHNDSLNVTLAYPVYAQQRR
T3 sequence (Q04759 whole entry): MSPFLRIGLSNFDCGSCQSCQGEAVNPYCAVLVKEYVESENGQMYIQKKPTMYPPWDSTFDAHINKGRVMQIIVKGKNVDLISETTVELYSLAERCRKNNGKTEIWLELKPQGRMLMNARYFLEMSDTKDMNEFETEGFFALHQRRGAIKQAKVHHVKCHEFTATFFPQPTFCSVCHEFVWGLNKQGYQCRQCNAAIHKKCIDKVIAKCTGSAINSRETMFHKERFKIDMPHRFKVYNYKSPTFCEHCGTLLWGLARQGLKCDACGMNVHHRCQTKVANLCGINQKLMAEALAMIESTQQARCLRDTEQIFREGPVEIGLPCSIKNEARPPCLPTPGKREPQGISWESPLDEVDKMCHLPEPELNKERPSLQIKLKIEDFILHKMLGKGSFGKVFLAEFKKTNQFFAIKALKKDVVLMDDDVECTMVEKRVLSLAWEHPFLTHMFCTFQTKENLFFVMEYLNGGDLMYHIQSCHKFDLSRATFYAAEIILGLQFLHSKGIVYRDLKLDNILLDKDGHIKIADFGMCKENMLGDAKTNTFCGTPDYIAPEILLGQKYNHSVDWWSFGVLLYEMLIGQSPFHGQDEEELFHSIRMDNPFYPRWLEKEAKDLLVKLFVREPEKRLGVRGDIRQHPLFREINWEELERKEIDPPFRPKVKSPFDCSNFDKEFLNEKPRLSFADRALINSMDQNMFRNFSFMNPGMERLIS

Consider `c1ccc2c(Oc3cncnc3)ncnc2c1` [Example 31, 4-(Pyrimidin-5-yloxy)quinazoline], for which the inhibition at 30 µM stood at 33% in assay [1] and 53% in assay [2]. At 10 µM the inhibition in assay [3] was 12%.
Turning to `Cc1noc(C)c1Oc1ncnc2ccccc12` [Example 26, 3,5-Dimethyl-4-(quinazolin-4-yloxy)isoxazole], the inhibition at 30 µM was 56% in assay [1], 12% in assay [2] and 51% in assay [4]. Besides, 25.9 µM corresponded to half-maximal inhibition in assay [5] (IC50).
